# Measured values as given in publication PMC8402715 (Viruses, 2021).
# Columns and labels:
# FLUAV-infected RPE cells = test: Metabolomics of polar metabolites in media of FLUAV-infected RPE cells; details: infected RPE cells (FLUAV moi 1), 10 μM, 24 h
# [1] = system: host genes in mock-infected RPE cells; format: cell-based, human; details: 10 μM, 8 h; for expression of PDE4D, CRISPLD2 and PTGES / expression of SLC26A4, FAM111B and CCNE2: non-infected RPE cells, compared to non-treated cells; for expression of PTGS2: mock-infected RPE cells
# [2] = system: host genes in FLUAV-infected RPE cells; format: cell-based, human; details: 10 μM, 8 h; for FLUAV-activated host gene expression: FLUAV-infected RPE cells (moi 1); for expression of PTGS2: virus-infected RPE cells (FLUAV moi 1)
# [3] = Cell viability assay (Cell Titer Glow) in mock-infected RPE cells, cytotoxicity; details: human
# [4] = system: viral RNAs of influenza A/WSN/33(H1N1) virus; format: cell-based, influenza A virus in human RPE cells
Structure (SMILES),levels of many polar metabolites in the media (FLUAV-infected RPE cells),expression of PTGS2 [1],expression of PTGS2 [2],CC50 at 48 h [3] [µM],also measured
CC(=O)Nc1ccc(O)cc1 [4-acetamidophenol],elevated,,,,
"CC(=O)Oc1ccccc1C(=O)O [acetylsalicylic acid, Acetylsalicylic acid]",elevated,,,,
"CC(C)(C)NCC(O)c1ccc(O)c(CO)c1 (stereo not shown) [salbutamol, Salbutamol]",,,,,"expression of PDE4D, CRISPLD2 and PTGES [1]: increased; expression of SLC26A4, FAM111B and CCNE2 [1]: decreased; FLUAV-activated host gene expression [2]: did not affect"
"CCOC(=O)C1=C(COCCN)NC(C)=C(C(=O)OC)C1c1ccccc1Cl (stereo not shown) [amlodipine, Amlodipine]",elevated,increased,increased,,
"C=C1CC[C@H](O)C/C1=C/C=C1\CCC[C@]2(C)[C@@H]([C@H](C)CCCC(C)C)CC[C@@H]12 [vitamin D3, Vitamin D3 (colecalciferol)]",,,,48.8,
"CN(C)C(=N)N=C(N)N [metformin, Metformin]",,,,,effect on polyadenylated viral RNAs [4]: differentially affected
"CCC(C)(C)C(=O)O[C@H]1C[C@@H](C)C=C2C=C[C@H](C)[C@H](CC[C@@H]3C[C@@H](O)CC(=O)O3)[C@H]21 [simvastatin, Simvastatin]",,increased,increased,48.3,
"CCCCNc1cc(C(=O)O)cc(S(N)(=O)=O)c1Oc1ccccc1 [bumetanide, Bumetanide]",elevated,,,,
"COc1ccc2nc([S@@+]([O-])Cc3ncc(C)c(OC)c3C)[nH]c2c1 [esomeprazole, Esomeprazole]",,increased,increased,,
"C[C@]12CCC(=O)C=C1[C@@H]1C[C@@H]1[C@H]1[C@@H]3[C@@H]4C[C@@H]4[C@@]4(CCC(=O)O4)[C@@]3(C)CC[C@@H]12 [drospirenone, Drospirenone]",,increased,increased,,
"OCc1cc(C(O)CNCCCCCCOCCCCc2ccccc2)ccc1O (stereo not shown) [salmeterol, Salmeterol]",,,,29.3,"expression of PDE4D, CRISPLD2 and PTGES [1]: increased; expression of SLC26A4, FAM111B and CCNE2 [1]: decreased; FLUAV-activated host gene expression [2]: did not affect"
"COC(=O)C1=C(C)NC(C)=C(C(=O)OC(C)(C)CN(C)CCC(c2ccccc2)c2ccccc2)C1c1cccc([N+](=O)[O-])c1 (stereo not shown) [lercanidipine, Lercanidipine]",,increased,increased,,
"CN[C@H]1CC[C@@H](c2ccc(Cl)c(Cl)c2)c2ccccc21 [sertraline, Sertraline]",,increased,increased,17.5,
"C=C1CC[C@H](O)C/C1=C/C=C1\CCC[C@]2(C)[C@@H]([C@H](C)/C=C/[C@H](C)C(C)C)CC[C@@H]12 [vitamin D2, Vitamin D2]",,,,42.1,
"CCOc1nc2cccc(C(=O)O)c2n1Cc1ccc(-c2ccccc2-c2nnn[nH]2)cc1 [candesartan, Candesartan]",elevated,,,,
"C#C[C@]1(O)CC[C@H]2[C@@H]3CCC4=CCCC[C@@H]4[C@H]3C(=C)C[C@@]21CC [desogestrel, Desogestrel]",,,,34.5,
C#C[C@]1(O)CC[C@H]2[C@@H]3CCc4cc(O)ccc4[C@H]3CC[C@@]21C [17a-ethynylestradiol],elevated,,,,
